Measured values: ChEMBL document CHEMBL1687812, “Interplay between drug efflux and antioxidants in Escherichia coli resistance to antibiotics” (2010)
In brackets after ≈: the same amount, converted by molar mass. Activity calls are given as the source filed them. No cut-off for these calls is given here.

Tests used:
[1] = test system: Escherichia coli; assay: Antibacterial activity against gspS deficient Escherichia coli JW2956-1; assay type: functional
[2] = test system: Escherichia coli; assay: Antibacterial activity against wild type Escherichia coli BW25113; assay type: functional
[3] = test system: Escherichia coli; assay: Antibacterial activity against ygiBC, yjfMC, gspS deficient Escherichia coli GD108; assay type: functional
[4] = test system: Escherichia coli; assay: Antibacterial activity against tolC deficient Escherichia coli GD100; assay type: functional
[5] = test system: Escherichia coli; assay: Antibacterial activity against gshB deficient Escherichia coli JW2914-1; assay type: functional
[6] = test system: Escherichia coli; assay: Antibacterial activity against tolC, gshB deficient Escherichia coli GD107; assay type: functional
[7] = test system: Escherichia coli; assay: Antibacterial activity against speE deficient Escherichia coli JW0117-1; assay type: functional
[8] = test system: Escherichia coli; assay: Antibacterial activity against tolC, speE deficient Escherichia coli GD106; assay type: functional
[9] = test system: Escherichia coli; assay: Antibacterial activity against tolC deficient Escherichia coli GD100 absence of glutathione; assay type: functional
[10] = test system: Escherichia coli; assay: Antibacterial activity against wild type Escherichia coli BW25113 absence of glutathione; assay type: functional
[11] = test system: Escherichia coli; assay: Antibacterial activity against wild type Escherichia coli BW25113 presence of 10 mM of glutathione; assay type: functional
[12] = test system: Escherichia coli; assay: Antibacterial activity against kanamycin-resistant acrAB, acrEF deficient Escherichia coli W4680AE presence of 5 mM of glutathione; assay type: functional
[13] = test system: Escherichia coli; assay: Antibacterial activity against kanamycin-resistant acrAB, acrEF deficient Escherichia coli W4680AE presence of 10 mM of glutathione; assay type: functional
[14] = test system: Escherichia coli; assay: Antibacterial activity against kanamycin-resistant acrAB, acrEF deficient Escherichia coli W4680AE presence of 15 mM of glutathione; assay type: functional
[15] = test system: Escherichia coli; assay: Antibacterial activity against wild type Escherichia coli BW25113 presence of 15 mM of glutathione; assay type: functional
[16] = test system: Escherichia coli; assay: Antibacterial activity against tolC deficient Escherichia coli GD100 presence of 5 mM of glutathione; assay type: functional
[17] = test system: Escherichia coli; assay: Antibacterial activity against tolC deficient Escherichia coli GD100 presence of 10 mM of glutathione; assay type: functional
[18] = test system: Escherichia coli; assay: Antibacterial activity against kanamycin-resistant acrAB, acrEF deficient Escherichia coli W4680AE absence of glutathione; assay type: functional
[19] = test system: Escherichia coli; assay: Antibacterial activity against tolC deficient Escherichia coli GD100 presence of 15 mM of glutathione; assay type: functional, organism-based
[20] = test system: Escherichia coli; assay: Antibacterial activity against wild type Escherichia coli BW25113 presence of 5 mM of glutathione; assay type: functional

NCC[C@H](O)C(=O)N[C@@H]1C[C@H](N)[C@@H](O[C@H]2O[C@H](CN)[C@@H](O)[C@H](O)[C@H]2O)[C@H](O)[C@H]1O[C@H]1O[C@H](CO)[C@@H](O)[C@H](N)[C@H]1O [AMIKACIN]
MIC [1]: 2 µg/mL (≈ 3.42 µM)
MIC [2]: 1 µg/mL (≈ 1.71 µM)
MIC [3]: 1 µg/mL (≈ 1.71 µM)
MIC [4]: 1 µg/mL (≈ 1.71 µM)
MIC [5]: 4 µg/mL (≈ 6.83 µM)
MIC [6]: 2 µg/mL (≈ 3.42 µM)
MIC [7]: 16 µg/mL (≈ 27.3 µM)
MIC [8]: 8 µg/mL (≈ 13.7 µM)

CC1(C)S[C@@H]2[C@H](NC(=O)[C@H](N)c3ccccc3)C(=O)N2[C@H]1C(=O)O [AMPICILLIN]
MIC [1]: 10 µg/mL (≈ 28.6 µM)
MIC [2]: 5 µg/mL (≈ 14.3 µM)
MIC [3]: 5 µg/mL (≈ 14.3 µM)
MIC [4]: 5 µg/mL (≈ 14.3 µM)
MIC [5]: 10 µg/mL (≈ 28.6 µM)
MIC [6]: 5 µg/mL (≈ 14.3 µM)
MIC [7]: 5 µg/mL (≈ 14.3 µM)
MIC [8]: 5 µg/mL (≈ 14.3 µM)

CC[C@H]1OC(=O)[C@H](C)[C@@H](O[C@H]2C[C@@](C)(OC)[C@@H](O)[C@H](C)O2)[C@H](C)[C@@H](O[C@@H]2O[C@H](C)C[C@H](N(C)C)[C@H]2O)[C@](C)(O)C[C@@H](C)C(=O)[C@H](C)[C@@H](O)[C@]1(C)O [ERYTHROMYCIN]
MIC [1]: 64 µg/mL (≈ 87.2 µM)
MIC [2]: 32 µg/mL (≈ 43.6 µM)
MIC [9]: 4 µg/mL (≈ 5.45 µM)
MIC [10]: 128 µg/mL (≈ 174 µM)
MIC [3]: 64 µg/mL (≈ 87.2 µM)
MIC [4]: 1 µg/mL (≈ 1.36 µM)
MIC [11]: 512 µg/mL
MIC [5]: 64 µg/mL (≈ 87.2 µM)
MIC [6]: 1 µg/mL (≈ 1.36 µM)
MIC [12]: 4 µg/mL
MIC [13]: 8 µg/mL
MIC [14]: 32 µg/mL
MIC [15]: 512 µg/mL
MIC [7]: 32 µg/mL (≈ 43.6 µM)
MIC [8]: 1 µg/mL (≈ 1.36 µM)
MIC [16]: 4 µg/mL
MIC [17]: 4 µg/mL
MIC [18]: 4 µg/mL (≈ 5.45 µM)
MIC [19]: Active
MIC [20]: 512 µg/mL

NC[C@H]1O[C@H](O[C@H]2[C@H](O)[C@@H](O[C@H]3O[C@H](CO)[C@@H](O)[C@H](N)[C@H]3O)[C@H](N)C[C@@H]2N)[C@H](O)[C@@H](O)[C@@H]1O [KANAMYCIN]
MIC [1]: 1.56 µg/mL (≈ 3.22 µM)
MIC [2]: 0.78 µg/mL (≈ 1.61 µM)
MIC [9]: 1.56 µg/mL (≈ 3.22 µM)
MIC [10]: 1.56 µg/mL (≈ 3.22 µM)
MIC [3]: 1.56 µg/mL (≈ 3.22 µM)
MIC [4]: 0.78 µg/mL (≈ 1.61 µM)
MIC [11]: 50 µg/mL
MIC [5]: 6.25 µg/mL (≈ 12.9 µM)
MIC [6]: 3.12 µg/mL (≈ 6.45 µM)
MIC [15]: 50 µg/mL
MIC [7]: 12.5 µg/mL (≈ 25.8 µM)
MIC [8]: 6.25 µg/mL (≈ 12.9 µM)
MIC [16]: 25 µg/mL
MIC [17]: 50 µg/mL
MIC [19]: Active
MIC [20]: 25 µg/mL

CCn1cc(C(=O)O)c(=O)c2cc(F)c(N3CCNCC3)cc21 [NORFLOXACIN]
MIC [1]: 0.02 µg/mL (≈ 0.0626 µM)
MIC [2]: 0.04 µg/mL (≈ 0.125 µM)
MIC [9]: 0.01 µg/mL (≈ 0.0313 µM)
MIC [10]: 0.04 µg/mL (≈ 0.125 µM)
MIC [3]: 0.01 µg/mL (≈ 0.0313 µM)
MIC [4]: 0.01 µg/mL (≈ 0.0313 µM)
MIC [11]: 0.64 µg/mL
MIC [5]: 0.04 µg/mL (≈ 0.125 µM)
MIC [6]: 0.0025 µg/mL (≈ 0.00783 µM)
MIC [12]: 0.01 µg/mL
MIC [13]: 0.02 µg/mL
MIC [14]: 0.16 µg/mL
MIC [15]: 1.28 µg/mL
MIC [7]: 0.02 µg/mL (≈ 0.0626 µM)
MIC [8]: 0.005 µg/mL (≈ 0.0157 µM)
MIC [16]: 0.02 µg/mL
MIC [17]: 0.08 µg/mL
MIC [18]: 0.005 µg/mL (≈ 0.0157 µM)
MIC [19]: Active
MIC [20]: 0.16 µg/mL

CO[C@@H]1[C@@H](OC(N)=O)[C@@H](O)[C@H](Oc2ccc3c(O)c(NC(=O)c4ccc(O)c(CC=C(C)C)c4)c(=O)oc3c2C)OC1(C)C [NOVOBIOCIN]
MIC [1]: 64 µg/mL (≈ 104 µM)
MIC [2]: 32 µg/mL (≈ 52.2 µM)
MIC [3]: 32 µg/mL (≈ 52.2 µM)
MIC [4]: 1 µg/mL (≈ 1.63 µM)
MIC [5]: 256 µg/mL (≈ 418 µM)
MIC [6]: 1 µg/mL (≈ 1.63 µM)
MIC [7]: 64 µg/mL (≈ 104 µM)
MIC [8]: 1 µg/mL (≈ 1.63 µM)

CN[C@@H]1[C@H](O)[C@H](NC)[C@H]2O[C@@]3(O)C(=O)C[C@@H](C)O[C@H]3O[C@@H]2[C@H]1O [SPECTINOMYCIN]
MIC [1]: 25 µg/mL (≈ 75.2 µM)
MIC [2]: 25 µg/mL (≈ 75.2 µM)
MIC [3]: 25 µg/mL (≈ 75.2 µM)
MIC [4]: 12.5 µg/mL (≈ 37.6 µM)
MIC [5]: 25 µg/mL (≈ 75.2 µM)
MIC [6]: 12.5 µg/mL (≈ 37.6 µM)
MIC [7]: 25 µg/mL (≈ 75.2 µM)
MIC [8]: 25 µg/mL (≈ 75.2 µM)
